Experimental data: BigSolDB 2.1

N#CNC(=N)N
solubility (mole fraction) (in DMF, 278.15 K): 0.183 | solubility (mole fraction) (in DMF, 283.15 K): 0.19 | solubility (mole fraction) (in DMF, 288.15 K): 0.205 | solubility (mole fraction) (in DMF, 293.15 K): 0.215 | solubility (mole fraction) (in DMF, 298.15 K): 0.225 | solubility (mole fraction) (in DMF, 303.15 K): 0.243 | solubility (mole fraction) (in DMF, 308.15 K): 0.248 | solubility (mole fraction) (in DMF, 313.15 K): 0.256 | solubility (mole fraction) (in DMF, 318.15 K): 0.268 | solubility (mole fraction) (in DMF, 323.15 K): 0.275 | solubility (mole fraction) (in acetone, 278.15 K): 0.00744 | solubility (mole fraction) (in acetone, 283.15 K): 0.0084 | solubility (mole fraction) (in acetone, 288.15 K): 0.00923 | solubility (mole fraction) (in acetone, 293.15 K): 0.0101 | solubility (mole fraction) (in acetone, 298.15 K): 0.011 | solubility (mole fraction) (in acetone, 303.15 K): 0.0118 | solubility (mole fraction) (in acetone, 308.15 K): 0.0127 | solubility (mole fraction) (in acetone, 313.15 K): 0.0136 | solubility (mole fraction) (in acetone, 318.15 K): 0.0144 | solubility (mole fraction) (in acetone, 323.15 K): 0.015 | solubility (mole fraction) (in ethanol, 278.15 K): 0.00374 | solubility (mole fraction) (in ethanol, 283.15 K): 0.00403 | solubility (mole fraction) (in ethanol, 288.15 K): 0.00449 | solubility (mole fraction) (in ethanol, 293.15 K): 0.00493 | solubility (mole fraction) (in ethanol, 298.15 K): 0.00591 | solubility (mole fraction) (in ethanol, 303.15 K): 0.00654 | solubility (mole fraction) (in ethanol, 308.15 K): 0.00738 | solubility (mole fraction) (in ethanol, 313.15 K): 0.00805 | solubility (mole fraction) (in ethanol, 318.15 K): 0.00883 | solubility (mole fraction) (in ethanol, 323.15 K): 0.0097 | solubility (mole fraction) (in ethylene glycol, 278.15 K): 0.0187 | solubility (mole fraction) (in ethylene glycol, 283.15 K): 0.0245 | solubility (mole fraction) (in ethylene glycol, 288.15 K): 0.0289 | solubility (mole fraction) (in ethylene glycol, 293.15 K): 0.0377 | solubility (mole fraction) (in ethylene glycol, 298.15 K): 0.048 | solubility (mole fraction) (in ethylene glycol, 303.15 K): 0.0587 | solubility (mole fraction) (in ethylene glycol, 308.15 K): 0.0655 | solubility (mole fraction) (in ethylene glycol, 313.15 K): 0.0805 | solubility (mole fraction) (in ethylene glycol, 318.15 K): 0.0995 | solubility (mole fraction) (in ethylene glycol, 323.15 K): 0.12 | solubility (mole fraction) (in methanol, 278.15 K): 0.0141 | solubility (mole fraction) (in methanol, 283.15 K): 0.0162 | solubility (mole fraction) (in methanol, 288.15 K): 0.0193 | solubility (mole fraction) (in methanol, 293.15 K): 0.021 | solubility (mole fraction) (in methanol, 298.15 K): 0.0231 | solubility (mole fraction) (in methanol, 303.15 K): 0.0264 | solubility (mole fraction) (in methanol, 308.15 K): 0.028 | solubility (mole fraction) (in methanol, 313.15 K): 0.0297 | solubility (mole fraction) (in methanol, 318.15 K): 0.032 | solubility (mole fraction) (in methanol, 323.15 K): 0.0347 | solubility (mole fraction) (in water, 278.15 K): 0.00303 | solubility (mole fraction) (in water, 283.15 K): 0.00387 | solubility (mole fraction) (in water, 288.15 K): 0.00526 | solubility (mole fraction) (in water, 293.15 K): 0.00707 | solubility (mole fraction) (in water, 298.15 K): 0.00891 | solubility (mole fraction) (in water, 303.15 K): 0.0114 | solubility (mole fraction) (in water, 308.15 K): 0.0141 | solubility (mole fraction) (in water, 313.15 K): 0.0172 | solubility (mole fraction) (in water, 318.15 K): 0.021 | solubility (mole fraction) (in water, 323.15 K): 0.0265
